In article PMC6826492, “Experimental and Computational Study of the Antioxidative Potential of Novel Nitro and Amino Substituted Benzimidazole/Benzothiazole-2-Carboxamides with Antiproliferative Activity” (Antioxidants, 2019):
Read-outs that look alike come from different tables or passages of the source.

Assays:
[1] = test system: three human cancer cells; experiment: Antiproliferative activity in vitro, range over the tumor cell lines; assay type: cell-based; details: HCT116, MCF-7, H 460
Experimental: (§1) The experiments were performed on four human cell lines, including HCT 116 (colon carcinoma), H 460 (lung carcinoma), MCF-7 (breast carcinoma), and HEK 293 (human embryonic kidney cells), in line with previously published experimental procedures. Briefly, the cells were grown in DMEM medium with the addition of 10% fetal bovine serum (FBS), 2 mM L-glutamine, 100 U/mL penicillin, and 100 µg/mL streptomycin, and cultured as monolayers at 37 °C in a humidified atmosphere with 5% CO2. Cells were seeded at 2 × 10^3 cells/well in a standard 96-well microtiter plates and left to attach for 24 h. The next day, a test compound was added in five serial 10-fold dilutions. The rate of cell growth was evaluated after 72 h of incubation with MTT assays. The obtained results are expressed as IC50 values, calculated from the concentration-response curve using linear regression analysis by fitting the test concentrations that give PG values above and below the reference value (i.e., 50%). Each test was performed in quadruplicate in at least two individual experiments.

[2] = DPPH free radical scavenging; assay type: biochemical; design: key to DPPH IC50: –: Very low activity; details: after 30 min of incubation with 100 μM DPPH
Experimental: The reducing activity of investigated systems was achieved by the DPPH method according to previously described procedures with modifications to assure the use in a 96-well microplate. Briefly, equal volumes of various concentrations of tested molecules (dissolved in DMSO) were added to the solution of DPPH (final concentration 50 µM in absolute ethanol). Ethanol and DMSO were used as control solutions in line with earlier reports.

[3] = test system: HCT 116 (colon carcinoma); experiment: Antiproliferative activity in vitro (MTT assay); assay type: cell-based, human; details: 72 h incubation, concentration that causes 50% growth inhibition, read-out: IC50 HCT116
Experimental: as §1

[4] = test system: H 460 (lung carcinoma); experiment: Antiproliferative activity in vitro (MTT assay); assay type: cell-based, human; details: 72 h incubation, concentration that causes 50% growth inhibition
Experimental: as §1

[5] = test system: MCF-7 (breast carcinoma); experiment: Antiproliferative activity in vitro (MTT assay); assay type: cell-based, human; details: 72 h incubation, concentration that causes 50% growth inhibition
Experimental: as §1

[6] = test system: HCT116 cell line; experiment: Mitochondrial ROS measurement assay (MitoSOX, flow cytometry); assay type: cell-based, human; details: HCT116, 10 µM compounds (3 µM Rotenone positive control), 1 h, *** p < 0.001, ns not significant
[7] = test system: HCT116 cell line; experiment: Cellular ROS measurement assay (DCFH-DA, flow cytometry); assay type: cell-based, human; details: HCT116, 10 µM compounds (2 mM H2O2 positive control), 1 h, DCF-DA; *** p < 0.001, ns not significant
Experimental: Figure S53. Impact of compounds on cellular ROS production was measured with fluorescent dye DCF-DA in HCT116 cell line, after the treatment with 10 µM compounds for 1h. H 2O2 was used as a positive control. Data presented here are the results of 3 independent measurements, done in duplicates. One-way ANOVA with Tukey’s post-hoc test was used for statistical analysis, ***- p < 0.001. […]
Human colon carcinoma cell line HCT116 was grown in DMEM medium with the addition of 10% fetal bovine serum (FBS), 2 mM L-glutamine, 100 U/ml penicillin and 100 µg/ml streptomycin, and cultured as monolayers at 37°C in a humidified atmosphere with 5% CO2.
Cellular ROS measurement assay
For the cellular ROS measurement assay, 2.5 × 10^4 cells were seeded into 96-well microtiter plates 24h prior to experiment. Next day, cells were trypsinized and incubated in FBS-free DMEM medium with 20 µM DCFH-DA fluorescence dye for 45 minutes. After the incubation, compounds were added without washing and cells were treated with 2 mM H 2O2 as a positive control and 10 µM compounds 8, 14 and 26 for 1 hour. Cells were washed in PBS and DCFH-DA signal was measured by flow cytometry, in FL1 channel. […]

[8] = test system: HEK 293 (human embryonic kidney cells); experiment: Cytotoxic activity on non-cancerous cells (MTT assay); assay type: cell-based; details: for IC50: Homo sapiens, HEK293, non-tumor cell line, 72 h incubation, MTT, concentration that causes 50% growth inhibition
Experimental: as §1

[9] = test system: HCT 116 cells; experiment: Antioxidative activity assay in cells (TBHP-induced ROS, DCFH-DA); assay type: cell-based, human; details: 100 µM TBHP + 10 µM compound, 1 h, DCFH-DA fluorescence
Experimental: For the antioxidative activity assay, 2.5 × 10^4 cells were seeded into 96-well microtiter plates and left to attach for 24 h. The next day, cells were washed with PBS and incubated in FBS-free DMEM medium with 25 µM DCFH-DA fluorescence dye. After 45 min of incubation, medium was discarded, and cells were washed with PBS. After the washing step, cells were incubated with 100 µM tert-Butyl hydroperoxide (TBHP) alone or in combination with antioxidative agents (50 mM N-Acetyl-L-cysteine—NAC, or 10 µM tested compounds) in PBS, for 1 h at 37 °C. DCFH-DA fluorescence was recorded on a microplate fluorimeter reader (Tecan) with excitation beam of 485 nm, while the emitted fluorescence was collected at 535 nm. All tests were presented as medians of three independent measurements, done in triplicates. One-way ANOVA with Tukey’s post-hoc test was used for statistical analysis, * p < 0.05, ** p < 0.01, *** p < 0.001.
In order to test the antioxidant activity of selected systems in tumor cells (Figure 1), we treated HCT 116 cells with tert-Butyl hydroperoxide (TBHP), a substance commonly used for inducing oxidative stress in cells and tissues, alone or in a combination with a known antioxidative agent N-Acetyl-L-cysteine (NAC) or tested compounds [35]. We measured the formation of oxidative stress by-products using 2′,7′-dichlorodihydrofluorescein diacetate (DCFH-DA). We selected system 8 showing pronounced antiproliferative/cytotoxic activity, but no antioxidant capacity in DPPH/FRAP assays, 29 showing exceptionally pronounced antioxidative activity in DPPH/FRAP tests, 14 showing negligible antiproliferative but strong antioxidant capacity in both DPPH/FRAP assays, and 26 showing similarly strong antiproliferative and radical trapping activity in DPPH assay, but rather modest reducing power in FRAP assay. None of the compounds influenced the basal level of ROS in the cells. […] On the other hand, no effect was obtained upon treatment with either 8 or 14 (Figure 1). We additionally tested the impact of the selected compounds on cellular and mitochondrial ROS production in HCT 116 cells using fluorescent dyes, DCFH-DA for cellular and MitoSOX for mitochondrial ROS detection (Supplementary Materials, Figures S53 and S54).
Figure 1 Antioxidative activity of selected systems. HCT 116 cells were treated with the combination of tert-Butyl hydroperoxide (TBHP, 100 uM) and N-Acetyl-L-cysteine (NAC, 50 mM) or tested compounds 8, 14, 26, and 29 (10 µM) for 1 h. The level of reactive oxygen species (ROS) was measured with fluorescent dye 2′,7′-dichlorodihydrofluorescein diacetate (DCFH-DA) using fluorimeter. Treatment with 100 uM TBHP alone was used as a control for ROS induction. Data presented here are the results of three independent measurements, done in triplicates. […]

[10] = Ferric reducing/antioxidant power (FRAP assay); assay type: biochemical; details: means ± standard deviation; absorbance at 593 nm
Experimental: The FRAP method was carried out according to previously described procedures with some modifications to be compatible with an assay on a 96-well microplate. All tests were done in triplicate, while the obtained results were averaged and reported as Fe^2+ equivalents (Fe^2+ µmol).
By using the FRAP assay, we investigated the reducing power of investigated systems, which was monitored by the corresponding changes in the absorbance at 593 nm. This method is based on the ability of systems to reduce the ferric tripyridyl triazine complex (TPTZ) to the ferrous state (Fe^2+), which can be seen by an intense blue color. […] Good reducing ability was shown by the trimethoxy substituted benzimidazole-2-carboxamide 14 bearing the amino group (1102.5 ± 14.1 mmolFe^2+/mmolC).

Q: Which results are given for `COc1cc(C(=O)Nc2nc3ccc([N+](=O)[O-])cc3[nH]2)cc(OC)c1OC` [Compound 8, 3,4,5-trimethoxy-N-[5(6)-nitrobenzimidazol-2-yl]benzamide]?
A: IC50 [1]: 600 to 2000 nM; DPPH IC50 [2]: –; IC50 ([3]; Homo sapiens, HCT-116, 72 h): 600 ± 30 nM; IC50 ([4]; Homo sapiens, NCI-H460, 72 h): 2000 ± 200 nM; IC50 ([5]; Homo sapiens, MCF7, 72 h): 1000 ± 200 nM; mitochondrial ROS production (significance vs control) [6]: ns; cellular ROS production (significance vs control) [7]: ns; lower activity towards HEK293 cells than towards HCT116 cells (times) ([8]; HEK293 vs HCT116): ≈ 3 times; IC50 [8]: 2000 ± 500 nM; ROS levels when oxidative stress was induced [9]: no effect; FRAP [10]: 89.7 ± 6.2 mmolFe^2+/mmolC

Q: Which results are given for `COc1ccccc1C(=O)Nc1nc2ccc(N)cc2s1.Cl` [Compound 21, N-(6-aminobenzothiazol-2-yl)-2-methoxybenzamide hydrochloride]?
A: IC50 [1]: 3000 to 10000 nM; IC50 [2]: 12000 ± 1100 nM; IC50 [3]: 10000 ± 8000 nM; IC50 [4]: 4000 ± 100 nM; IC50 [5]: 3000 ± 700 nM; IC50 [8]: 25000 ± 1500 nM; FRAP [10]: 214.3 ± 3.4 mmolFe^2+/mmolC

Q: What does the source list for `COc1c(O)cc(C(=O)Nc2nc3ccc([N+](=O)[O-])cc3[nH]2)cc1O` [Compound 26, 3,5-dihydroxy-4-methoxy-N-[5(6)-nitrobenzimidazol-2-yl]benzamide]?
A: IC50 [2]: 8100 ± 1900 nM; IC50 ([3]; Homo sapiens, HCT-116, 72 h): 4000 ± 100 nM; IC50 ([4]; Homo sapiens, NCI-H460, 72 h): 3000 ± 500 nM; IC50 ([5]; Homo sapiens, MCF7, 72 h): 3000 ± 1000 nM; mitochondrial ROS production (significance vs control) [6]: ns; cellular ROS production (significance vs control) [7]: ns; IC50 [8]: 3000 ± 700 nM; ROS levels when oxidative stress was induced [9]: significantly reduced the ROS levels; FRAP [10]: 244.9 ± 4.8 mmolFe^2+/mmolC
